{"source": "paper PMC4689406", "about": "“(R)-NODAGA-PSMA: A Versatile Precursor for Radiometal Labeling and Nuclear Imaging of PSMA-Positive Tumors” (PLoS ONE, 2015)", "key": {"LNCaP xenografts": {"tested_on": "LNCaP xenografts", "assay": "Biodistribution in LNCaP xenografts", "assay_type": "in vivo, Balb/C nude mice", "conditions": "for Adrenal (biodistribution) / Blood (biodistribution) / Heart (biodistribution) / Intestine (biodistribution) / Kidney (biodistribution) / LNCaP-tumor (tumor uptake, biodistribution) / Lung (biodistribution) / Muscle (biodistribution) / Pancreas (biodistribution) / Spleen (biodistribution) / Stomach (biodistribution) / Bone (biodistribution) / Liver (biodistribution) / Tumor/blood / Tumor/kidney / Tumor/muscle: 10 pmol i.v., LNCaP mice; for Tumor/blood / Tumor/kidney / Tumor/muscle: ratio", "procedure": "Female athymic Balb/C nude mice (age: 4–6 weeks, weight: 17–20 g) were purchased from Janvier, France. […] All animal experiments were conducted in strict accordance with the recommendations in the Guide for the Care and Use of Laboratory Animals of the National Institutes of Health. […]"}, "[1]": {"assay": "Lipophilicity (LogD, pH 7.4), shake-flask method", "assay_type": "physicochemical", "conditions": "octanol/PBS pH 7.4, shake-flask", "procedure": "The lipophilicity (LogD, pH 7.4) was estimated by the “shake-flask” method (S3 Appendix).\nThe mixture was vortexed for 1 h to reach the equilibrium and then centrifuged (3000 rpm) for 10 min. From each phase, an aliquot (100 μL) was pipetted out and measured in a γ-counter. Each measurement was repeated five times. Care was taken to avoid cross-contamination between the phases. The partition coefficient was calculated as the average log ratio of the radioactivity in the organic fraction and the PBS fraction."}, "PSMA on LNCaP cells": {"target": "T1, PSMA on LNCaP cells (Homo sapiens, UniProt Q04609)", "T1 construct": "host or cells: LNCaP cells", "T1 sequence (Q04609 whole entry)": "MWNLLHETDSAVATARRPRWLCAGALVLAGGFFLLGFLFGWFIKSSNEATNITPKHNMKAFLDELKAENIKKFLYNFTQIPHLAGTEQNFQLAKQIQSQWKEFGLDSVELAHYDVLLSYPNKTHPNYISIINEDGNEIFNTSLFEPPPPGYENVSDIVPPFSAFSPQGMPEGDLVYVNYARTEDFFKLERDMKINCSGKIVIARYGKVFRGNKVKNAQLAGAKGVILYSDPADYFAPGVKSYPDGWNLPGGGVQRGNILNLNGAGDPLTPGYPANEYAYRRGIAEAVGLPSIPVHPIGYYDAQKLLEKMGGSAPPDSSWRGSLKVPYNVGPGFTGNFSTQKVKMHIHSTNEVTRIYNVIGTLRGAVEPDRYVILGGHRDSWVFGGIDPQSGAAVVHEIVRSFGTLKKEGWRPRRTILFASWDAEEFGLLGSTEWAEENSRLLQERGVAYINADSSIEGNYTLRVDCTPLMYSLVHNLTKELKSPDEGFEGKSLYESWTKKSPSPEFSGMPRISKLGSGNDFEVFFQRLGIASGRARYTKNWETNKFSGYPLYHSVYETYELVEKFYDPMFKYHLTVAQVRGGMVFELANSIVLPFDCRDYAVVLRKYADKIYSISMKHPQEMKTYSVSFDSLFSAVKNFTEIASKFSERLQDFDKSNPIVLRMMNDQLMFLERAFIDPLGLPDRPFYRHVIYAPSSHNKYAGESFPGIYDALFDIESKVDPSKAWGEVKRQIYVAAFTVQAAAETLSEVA", "assay": "Saturation binding study on intact LNCaP cells", "conditions": "120 min at 4°C", "procedure": "The next day, the medium was removed, the cells washed and incubated for 1 h at 37°C with fresh binding buffer (RPMI Medium 1640-GlutaMAX containing 1% FBS, 100 U/mL penicillin and 100 μg/mL streptomycin, 50 mM Hepes, 50 μg/mL bacitracin, 0.5% BSA). Afterwards, the plates were placed on ice for 30 min followed by incubation with increasing concentrations of either ^68/natGa-CC34, ^64/natCu-CC34, ^111/natIn-CC34 and ^111/[…]-617 (1-100 nM) in phosphate-buffered saline binding buffer pH 7.4. After the addition of the radioligands, the cells were incubated for 120 min at 4°C. […] The cells were washed twice with ice-cold PBS, followed by solubilization with 1 N NaOH and the cell-associated radioactivity was measured using a gamma-counter. Specific binding was plotted against the total molar concentration of the added radiotracer. […] For all the cell studies the values are normalized for 1x10^6 cells per well and all data are from two independent experiments with triplicates in each experiment."}, "[2]": {"conditions": "1 h p.i. blocked (co-injected 20 nmol PMPA)"}}}
{"smiles": "O=C([O-])CN(CCN(CC(=O)[O-])Cc1cc(CCC(=O)NCCCCCC(=O)NCCCC[C@H](NC(=O)N[C@@H](CCC(=O)O)C(=O)O)C(=O)O)ccc1[O-])Cc1cc(CCC(=O)O)ccc1[O-].[68Ga+3].[OH3+]", "note": "[^68Ga-HBED-CC-PSMA, HBED-CC-Ahx-Lys-NH-CO-NH-Glu]", "values": [{"measurement": "Adrenal (biodistribution)", "setting": "LNCaP xenografts; [2]", "value": "1.1±0.5", "unit": "%IA/g"}, {"measurement": "Blood (biodistribution)", "setting": "LNCaP xenografts; [2]", "value": "0.4±0.04", "unit": "%IA/g"}, {"measurement": "Heart (biodistribution)", "setting": "LNCaP xenografts; [2]", "value": "0.2±0.06", "unit": "%IA/g"}, {"measurement": "Intestine (biodistribution)", "setting": "LNCaP xenografts; [2]", "value": "0.3±0.04", "unit": "%IA/g"}, {"measurement": "Kidney (biodistribution)", "setting": "LNCaP xenografts; [2]", "value": "11±3", "unit": "%IA/g"}, {"measurement": "LNCaP-tumor (tumor uptake, biodistribution)", "setting": "LNCaP xenografts; [2]", "value": "4.1±1.2", "unit": "%IA/g"}, {"measurement": "Lung (biodistribution)", "setting": "LNCaP xenografts; [2]", "value": "0.7±0.2", "unit": "%IA/g"}, {"measurement": "Muscle (biodistribution)", "setting": "LNCaP xenografts; [2]", "value": "0.2±0.1", "unit": "%IA/g"}, {"measurement": "Pancreas (biodistribution)", "setting": "LNCaP xenografts; [2]", "value": "0.3±0.04", "unit": "%IA/g"}, {"measurement": "Spleen (biodistribution)", "setting": "LNCaP xenografts; [2]", "value": "2.1±0.06", "unit": "%IA/g"}, {"measurement": "Stomach (biodistribution)", "setting": "LNCaP xenografts; [2]", "value": "0.3±0.01", "unit": "%IA/g"}, {"measurement": "Adrenal (biodistribution)", "setting": "LNCaP xenografts; 1 h p.i.", "value": "23±4", "unit": "%IA/g"}, {"measurement": "Blood (biodistribution)", "setting": "LNCaP xenografts; 1 h p.i.", "value": "0.2±0.04", "unit": "%IA/g"}, {"measurement": "Bone (biodistribution)", "setting": "LNCaP xenografts; 1 h p.i.", "value": "0.5±0.05", "unit": "%IA/g"}, {"measurement": "Heart (biodistribution)", "setting": "LNCaP xenografts; 1 h p.i.", "value": "0.6±0.06", "unit": "%IA/g"}, {"measurement": "Intestine (biodistribution)", "setting": "LNCaP xenografts; 1 h p.i.", "value": "0.5±0.1", "unit": "%IA/g"}, {"measurement": "Kidney (biodistribution)", "setting": "LNCaP xenografts; 1 h p.i.", "value": "208±4", "unit": "%IA/g"}, {"measurement": "LNCaP-tumor (tumor uptake, biodistribution)", "setting": "LNCaP xenografts; 1 h p.i.", "value": "15.8±1.4", "unit": "%IA/g"}, {"measurement": "Liver (biodistribution)", "setting": "LNCaP xenografts; 1 h p.i.", "value": "0.4±0.01", "unit": "%IA/g"}, {"measurement": "Lung (biodistribution)", "setting": "LNCaP xenografts; 1 h p.i.", "value": "3.5±0.2", "unit": "%IA/g"}, {"measurement": "Muscle (biodistribution)", "setting": "LNCaP xenografts; 1 h p.i.", "value": "0.6±0.06", "unit": "%IA/g"}, {"measurement": "Pancreas (biodistribution)", "setting": "LNCaP xenografts; 1 h p.i.", "value": "1.4±0.3", "unit": "%IA/g"}, {"measurement": "Spleen (biodistribution)", "setting": "LNCaP xenografts; 1 h p.i.", "value": "31±6", "unit": "%IA/g"}, {"measurement": "Stomach (biodistribution)", "setting": "LNCaP xenografts; 1 h p.i.", "value": "0.7±0.1", "unit": "%IA/g"}, {"measurement": "Adrenal (biodistribution)", "setting": "LNCaP xenografts; 2 h p.i.", "value": "23±0.8", "unit": "%IA/g"}, {"measurement": "Bone (biodistribution)", "setting": "LNCaP xenografts; 2 h p.i.", "value": "0.4±0.2", "unit": "%IA/g"}, {"measurement": "Heart (biodistribution)", "setting": "LNCaP xenografts; 2 h p.i.", "value": "0.6±0.02", "unit": "%IA/g"}, {"measurement": "Intestine (biodistribution)", "setting": "LNCaP xenografts; 2 h p.i.", "value": "0.5±0.2", "unit": "%IA/g"}, {"measurement": "Kidney (biodistribution)", "setting": "LNCaP xenografts; 2 h p.i.", "value": "211±29", "unit": "%IA/g"}, {"measurement": "LNCaP-tumor (tumor uptake, biodistribution)", "setting": "LNCaP xenografts; 2 h p.i.", "value": "14.8±2.2", "unit": "%IA/g"}, {"measurement": "Liver (biodistribution)", "setting": "LNCaP xenografts; 2 h p.i.", "value": "0.4±0.05", "unit": "%IA/g"}, {"measurement": "Lung (biodistribution)", "setting": "LNCaP xenografts; 2 h p.i.", "value": "3.2±0.2", "unit": "%IA/g"}, {"measurement": "Muscle (biodistribution)", "setting": "LNCaP xenografts; 2 h p.i.", "value": "0.6±0.2", "unit": "%IA/g"}, {"measurement": "Pancreas (biodistribution)", "setting": "LNCaP xenografts; 2 h p.i.", "value": "2±0.5", "unit": "%IA/g"}, {"measurement": "Spleen (biodistribution)", "setting": "LNCaP xenografts; 2 h p.i.", "value": "29±2", "unit": "%IA/g"}, {"measurement": "Stomach (biodistribution)", "setting": "LNCaP xenografts; 2 h p.i.", "value": "1±0.6", "unit": "%IA/g"}, {"measurement": "reduction of the tumor uptake (blocking)", "setting": "LNCaP xenografts; LNCaP tumor, 1 h p.i., co-injection of 20 nmol PMPA", "value": "about 75%"}, {"measurement": "Tumor/blood", "setting": "LNCaP xenografts; 1 h p.i.", "value": "68±4"}, {"measurement": "Tumor/kidney", "setting": "LNCaP xenografts; 1 h p.i.", "value": "0.08±0.01"}, {"measurement": "Tumor/muscle", "setting": "LNCaP xenografts; 1 h p.i.", "value": "29±6"}, {"measurement": "Tumor/blood", "setting": "LNCaP xenografts; 2 h p.i.", "value": "83±15"}, {"measurement": "Tumor/kidney", "setting": "LNCaP xenografts; 2 h p.i.", "value": "0.07±0.02"}, {"measurement": "Tumor/muscle", "setting": "LNCaP xenografts; 2 h p.i.", "value": "24±3"}, {"measurement": "LogDoctanol/PBS", "setting": "[1]", "value": "-4.06 ± 0.10"}, {"measurement": "Bmax (maximum number of binding sites)", "setting": "PSMA on LNCaP cells", "value": "0.41 ± 0.02", "unit": "nM"}, {"measurement": "Kd", "setting": "PSMA on LNCaP cells; non-specific binding with 1 μM PMPA, read-out: Kd (dissociation constant)", "value": "2.9 ± 0.6", "unit": "nM"}]}
